Experiments:
[1] = biological target: T1, Neurtophil Elastase(human) (Homo sapiens, UniProt P08246); experiment: Neutrophil elastase inhibition, chromogenic substrate MeOSuc-Ala-Ala-Pro-Val-pNA; type: biochemical; details: Tris buffer pH 7.8; read-out: IC50 HNE
T1 construct: purchased Enzo-life sciences
T1 sequence (P08246 30-267): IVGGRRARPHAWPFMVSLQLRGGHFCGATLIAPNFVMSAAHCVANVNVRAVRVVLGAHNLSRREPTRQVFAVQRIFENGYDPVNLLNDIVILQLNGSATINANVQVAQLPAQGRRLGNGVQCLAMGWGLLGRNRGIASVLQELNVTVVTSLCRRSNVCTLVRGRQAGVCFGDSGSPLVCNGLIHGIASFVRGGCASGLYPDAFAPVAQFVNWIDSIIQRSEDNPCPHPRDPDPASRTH
Text: The IC50 values For KLK1, KLK2 and KLK8 were obtained in a similar way. For plasmin, tPA, thrombin, Fxa, HNE, Plasma kallikrein Chromogenic substrates were used (absorption: 405 nm). (KLK2, KLK4, KLK8 were supplied by Viktor Magdolen TUMunich (TUM)).

KLK4 = biological target: T2, KLK4 (Homo sapiens, UniProt Q9Y5K2); experiment: KLK4 inactivation kinetics from progress curves (kobs vs inhibitor concentration); type: biochemical; details: for kapp KLK4: apparent second-order rate constant, substrate 250 μM; for Irreversible (KLK4): irreversible binding to KLK4, Yes/No
T2 construct: purchased Viktor Magdolen (TUM), supplied by an academic laboratory
Procedure, shortened: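 Enzyme was added at time zero to inhibitor plus substrate (250 μM final), and aminomethylcoumarine absorbance was followed under pseudo-first-order conditions ([I]0>>[E]0) with under 10% substrate conversion. Progress curves were fitted to the integrated rate equation to give kobs. kapp is the slope of kobs versus [I]0 and depends on substrate concentration.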

T2 sequence (Q9Y5K2 31-254): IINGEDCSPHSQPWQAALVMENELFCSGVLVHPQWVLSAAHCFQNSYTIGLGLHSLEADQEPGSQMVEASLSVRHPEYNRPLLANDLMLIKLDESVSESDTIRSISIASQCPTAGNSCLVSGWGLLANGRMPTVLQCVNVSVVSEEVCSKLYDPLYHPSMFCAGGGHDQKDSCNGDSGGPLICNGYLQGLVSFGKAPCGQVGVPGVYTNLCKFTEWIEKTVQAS

SMILES | IC50 [1] [µM] | kapp KLK4 (KLK4) [M⁻¹ s⁻¹] | Irreversible (KLK4) (KLK4)
COCCOCCOC(=O)NC(c1ccc(NC(=N)N)cc1)P(=O)(Oc1ccccc1)Oc1ccccc1.O=C(O)C(F)(F)F (stereo not drawn) [Compound 28, 2-(2-methoxyethoxy)ethyl((diphenoxyphosphoryl)(4-guanidinophenyl)methyl) carbamate 2,2,2-trifluoroacetate] | > 250 | 34000 | Yes/
N=C(N)Nc1ccc(C(NC(=O)OCCOc2ccccc2)P(=O)(Oc2ccccc2)Oc2ccccc2)cc1.O=C(O)C(F)(F)F (stereo not drawn) [Compound 30, 2-phenoxyethyl((diphenoxyphosphoryl)(4-guanidinophenyl)methyl)carbamate 2,2,2-trifluoroacetate] | > 250 | 15000 | Yes/

— patent US10017527B2, “KLK4 inhibitors” (Universiteit Antwerpen, priority 2014, dated 2018)
